Measured values taken from the NIST ThermoML archive (doi:10.1016/j.fluid.2017.08.016).
Several values for one entry are separate records, joined by “and”; a condition that tells them apart may be missing. Identical values can stand only once. Numbers after ± are expanded uncertainties.

Details: for surface tension liquid-gas: Pendant drop shape; for mass density: 101.33 kPa, Liquid, Vibrating tube method

Cc1ccccc1 [toluene]
Details | surface tension liquid-gas [mN/m]
303.16 K | 27.15 ± 0.42
308.15 K | 26.51 ± 0.42
313.15 K | 25.98 ± 0.41
318.13 K | 25.42 ± 0.4
323.15 K | 24.89 ± 0.39
328.16 K | 24.34 ± 0.38
333.14 K | 23.65 ± 0.38
338.16 K | 23.08 ± 0.37
343.16 K | 22.55 ± 0.36
348.16 K | 21.98 ± 0.35
353.15 K | 21.45 ± 0.34
358.15 K | 20.92 ± 0.34
363.16 K | 20.37 ± 0.33
368.14 K | 19.86 ± 0.32

COCCOCCOC [2,5,8-trioxanonane]
Details | mass density | surface tension liquid-gas [mN/m]
303.15 K | 933.98 ± 1.9 kg/m3 | –
303.16 K | 933.65 ± 0.94 kg/m3 | 28.54 ± 0.74
308.15 K | 928.95 ± 1.9 kg/m3 | –
313.15 K | 923.97 ± 1.9 kg/m3 | –
313.16 K | 923.61 ± 0.93 kg/m3 | 27.57 ± 0.72
318.15 K | 918.94 ± 1.8 kg/m3 | –
323.15 K | 913.9 ± 1.8 kg/m3 | –
323.17 K | 913.51 ± 0.92 kg/m3 | 26.27 ± 0.68
328.15 K | 908.84 ± 1.8 kg/m3 | –
333.15 K | 903.76 ± 1.8 kg/m3 and 903.38 ± 0.91 kg/m3 | 24.98 ± 0.65
338.15 K | 898.67 ± 1.8 kg/m3 | –
343.15 K | 893.55 ± 1.8 kg/m3 and 893.13 ± 0.9 kg/m3 | 23.79 ± 0.62
348.15 K | 888.41 ± 1.8 kg/m3 | –
353.15 K | 883.24 ± 1.8 kg/m3 | –
353.16 K | 882.79 ± 0.89 kg/m3 | 22.87 ± 0.6
358.15 K | 878.04 ± 1.8 kg/m3 | –
363.14 K | 872.36 ± 0.88 kg/m3 | 21.68 ± 0.57
363.15 K | 872.81 ± 1.8 kg/m3 | –
373.14 K | 861.79 ± 0.87 kg/m3 | 20.53 ± 0.54
383.16 K | 851.06 ± 0.86 kg/m3 | 19.43 ± 0.51
393.15 K | 840.22 ± 0.85 kg/m3 | 18.37 ± 0.49

CCCCC(CC)COC(C)=O (centres undefined) [2-ethylhexyl acetate]
Details | mass density | surface tension liquid-gas [mN/m]
303.15 K | 863.51 ± 1.7 kg/m3 | –
303.17 K | 863.56 ± 0.89 kg/m3 | 25.15 ± 0.66
308.15 K | 859.15 ± 1.7 kg/m3 | –
313.15 K | 854.77 ± 1.7 kg/m3 | –
313.16 K | 854.84 ± 0.88 kg/m3 | 24.23 ± 0.64
318.15 K | 850.39 ± 1.7 kg/m3 | –
323.15 K | 846.01 ± 1.7 kg/m3 | –
323.16 K | 846.08 ± 0.87 kg/m3 | 23.23 ± 0.62
328.15 K | 841.61 ± 1.7 kg/m3 | –
333.15 K | 837.2 ± 1.7 kg/m3 and 837.29 ± 0.87 kg/m3 | 22.28 ± 0.59
338.15 K | 832.78 ± 1.7 kg/m3 | –
343.15 K | 828.35 ± 1.7 kg/m3 and 828.44 ± 0.86 kg/m3 | 21.27 ± 0.57
348.15 K | 823.91 ± 1.7 kg/m3 | –
353.15 K | 819.45 ± 1.6 kg/m3 | –
353.16 K | 819.54 ± 0.85 kg/m3 | 20.22 ± 0.54
358.15 K | 814.98 ± 1.6 kg/m3 | –
363.15 K | 810.49 ± 1.6 kg/m3 and 810.59 ± 0.84 kg/m3 | 19.26 ± 0.52
373.15 K | 801.56 ± 0.83 kg/m3 | 18.35 ± 0.49
383.15 K | 792.46 ± 0.82 kg/m3 | 17.44 ± 0.47
393.16 K | 783.27 ± 0.82 kg/m3 | 16.59 ± 0.45

COCCO [2-methoxyethan-1-ol]
Details | mass density [kg/m3] | surface tension liquid-gas [mN/m]
303.15 K | 956.73 ± 1.9 | –
303.16 K | 956.41 ± 0.96 | 30.06 ± 0.78
308.15 K | 952.09 ± 1.9 | –
313.14 K | 947.1 ± 0.95 | 29.01 ± 0.75
313.15 K | 947.42 ± 1.9 | –
318.15 K | 942.72 ± 1.9 | –
323.15 K | 937.98 ± 1.9 | –
323.16 K | 937.62 ± 0.94 | 27.98 ± 0.72
328.15 K | 933.21 ± 1.9 | –
333.14 K | 928.03 ± 0.93 | 26.9 ± 0.7
333.15 K | 928.39 ± 1.9 | –
338.15 K | 923.54 ± 1.9 | –
343.15 K | 918.64 ± 1.8 | –
343.16 K | 918.23 ± 0.92 | 25.88 ± 0.67
348.15 K | 913.69 ± 1.8 | –
353.15 K | 908.7 ± 1.8 | –
353.16 K | 908.26 ± 0.91 | 24.7 ± 0.64
358.15 K | 903.65 ± 1.8 | –
363.15 K | 898.55 ± 1.8 | –
363.16 K | 898.09 ± 0.9 | 23.6 ± 0.62
373.16 K | 887.7 ± 0.89 | 22.56 ± 0.59
383.17 K | 877.05 ± 0.88 | 21.58 ± 0.56
393.17 K | 866.15 ± 0.87 | 20.51 ± 0.54

CCOC(=O)CCC(=O)OCC [diethyl butanedioate]
Details | mass density | surface tension liquid-gas [mN/m]
303.15 K | 1029.59 ± 2.1 kg/m3 | –
303.16 K | 1029.57 ± 1.1 kg/m3 | 30.62 ± 0.8
308.15 K | 1024.4 ± 2.1 kg/m3 | –
313.15 K | 1019.2 ± 2 kg/m3 and 1019.2 ± 1.1 kg/m3 | 29.55 ± 0.78
318.15 K | 1014.01 ± 2 kg/m3 | –
323.15 K | 1008.81 ± 2 kg/m3 and 1008.81 ± 1 kg/m3 | 28.42 ± 0.75
328.15 K | 1003.6 ± 2 kg/m3 | –
333.15 K | 998.39 ± 2 kg/m3 | –
333.17 K | 998.37 ± 1 kg/m3 | 27.41 ± 0.72
338.15 K | 993.16 ± 2 kg/m3 | –
343.15 K | 987.93 ± 2 kg/m3 | –
343.17 K | 987.91 ± 1 kg/m3 | 26.33 ± 0.69
348.15 K | 982.7 ± 2 kg/m3 | –
353.15 K | 977.45 ± 2 kg/m3 | –
353.16 K | 977.44 ± 1 kg/m3 | 25.12 ± 0.66
358.15 K | 972.19 ± 2 kg/m3 | –
363.15 K | 966.91 ± 1.9 kg/m3 | –
363.16 K | 966.9 ± 0.99 kg/m3 | 24.02 ± 0.64
373.14 K | 956.34 ± 0.98 kg/m3 | 22.95 ± 0.61
383.15 K | 945.69 ± 0.97 kg/m3 | 21.96 ± 0.58
393.17 K | 934.96 ± 0.96 kg/m3 | 21.03 ± 0.56
